Experimental data from publication PMC4979471 (Cell Death Discovery, 2015).
Like-named read-outs stand apart in the source and are kept apart here.

Assays:
Assay in all cases: Kinase selectivity, P33-radiolabeled assay
Format in all cases: biochemical
Conditions in all cases: 10 μM ATP
DAPK2 = molecular target: T1, DAPK2 (Homo sapiens, UniProt Q9UIK4)
T1 construct: purchased Reaction Biology Corp
Method: (§1) The compound was tested at a single dose in duplicate at 10 μM. Reactions were carried out at 10 μM ATP. Data are reported as % enzyme activity (relative to DMSO controls). The full data set is shown in the Supplementary Table I.

RSK3 = molecular target: T2, RSK3 (Homo sapiens, UniProt Q15349)
T2 construct: purchased Reaction Biology Corp
Method: as §1

JAK3 = molecular target: T3, JAK3 (Homo sapiens, UniProt P52333)
T3 construct: purchased Reaction Biology Corp
T3 sequence (P52333 1-1124): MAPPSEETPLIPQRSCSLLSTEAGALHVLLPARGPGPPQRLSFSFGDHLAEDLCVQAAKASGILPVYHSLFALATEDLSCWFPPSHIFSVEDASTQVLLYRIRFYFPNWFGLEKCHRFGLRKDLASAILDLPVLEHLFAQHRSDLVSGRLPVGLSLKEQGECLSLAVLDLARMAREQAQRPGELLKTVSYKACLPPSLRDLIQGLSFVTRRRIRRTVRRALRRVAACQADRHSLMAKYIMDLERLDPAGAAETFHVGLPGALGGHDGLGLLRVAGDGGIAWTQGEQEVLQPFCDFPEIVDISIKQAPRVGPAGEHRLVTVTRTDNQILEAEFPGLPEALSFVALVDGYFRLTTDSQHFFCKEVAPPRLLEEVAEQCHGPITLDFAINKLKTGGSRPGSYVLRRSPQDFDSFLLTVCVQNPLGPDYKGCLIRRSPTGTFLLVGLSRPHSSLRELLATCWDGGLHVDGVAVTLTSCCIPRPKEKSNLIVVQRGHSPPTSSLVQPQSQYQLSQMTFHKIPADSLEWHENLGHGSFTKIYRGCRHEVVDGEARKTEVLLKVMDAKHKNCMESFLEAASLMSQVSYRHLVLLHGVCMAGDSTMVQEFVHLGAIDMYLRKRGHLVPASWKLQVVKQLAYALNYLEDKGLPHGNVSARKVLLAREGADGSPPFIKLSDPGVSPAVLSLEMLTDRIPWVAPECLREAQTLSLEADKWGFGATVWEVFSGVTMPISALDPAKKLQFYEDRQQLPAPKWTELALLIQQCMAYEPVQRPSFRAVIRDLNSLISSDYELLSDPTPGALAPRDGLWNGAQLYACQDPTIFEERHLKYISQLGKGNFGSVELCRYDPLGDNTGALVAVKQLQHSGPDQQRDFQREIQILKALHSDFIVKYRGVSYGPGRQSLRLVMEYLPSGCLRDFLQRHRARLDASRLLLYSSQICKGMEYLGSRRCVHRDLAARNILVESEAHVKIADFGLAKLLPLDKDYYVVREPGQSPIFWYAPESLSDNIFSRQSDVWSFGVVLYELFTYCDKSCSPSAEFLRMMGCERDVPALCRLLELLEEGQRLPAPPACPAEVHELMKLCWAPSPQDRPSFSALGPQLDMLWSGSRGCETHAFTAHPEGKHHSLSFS
Method: as §1

ERBB2/HER2 = molecular target: T4, ERBB2/HER2 (Homo sapiens, UniProt P04626)
T4 construct: purchased Reaction Biology Corp
Method: as §1

STK22D/TSSK1 = molecular target: T5, STK22D/TSSK1 (Homo sapiens, UniProt Q9BXA7)
T5 construct: purchased Reaction Biology Corp
T5 sequence (Q9BXA7 1-367): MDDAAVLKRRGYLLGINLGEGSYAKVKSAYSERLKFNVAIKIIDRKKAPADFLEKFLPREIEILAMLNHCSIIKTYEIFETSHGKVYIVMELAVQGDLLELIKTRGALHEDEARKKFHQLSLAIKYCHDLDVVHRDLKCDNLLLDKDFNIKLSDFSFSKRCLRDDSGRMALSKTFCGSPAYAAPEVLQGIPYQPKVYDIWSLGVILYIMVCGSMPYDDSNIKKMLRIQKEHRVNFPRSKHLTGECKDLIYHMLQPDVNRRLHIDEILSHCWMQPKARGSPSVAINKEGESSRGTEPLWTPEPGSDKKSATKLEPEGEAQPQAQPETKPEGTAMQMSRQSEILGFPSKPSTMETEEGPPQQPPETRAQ
Method: as §1

HIPK2 = molecular target: T6, HIPK2 (Homo sapiens, UniProt Q9H2X6)
T6 construct: purchased Reaction Biology Corp
Method: as §1

BLK = molecular target: T7, BLK (Homo sapiens, UniProt P51451)
T7 construct: purchased Reaction Biology Corp
Method: as §1

MARK1 = molecular target: T8, MARK1 (Homo sapiens, UniProt Q9P0L2)
T8 construct: purchased Reaction Biology Corp
Method: as §1

CHK2 = molecular target: T9, CHK2 (Homo sapiens, UniProt O96017)
T9 construct: purchased Reaction Biology Corp
Method: as §1

GRK7 = molecular target: T10, GRK7 (Homo sapiens, UniProt Q8WTQ7)
T10 construct: purchased Reaction Biology Corp
T10 sequence (Q8WTQ7 1-553): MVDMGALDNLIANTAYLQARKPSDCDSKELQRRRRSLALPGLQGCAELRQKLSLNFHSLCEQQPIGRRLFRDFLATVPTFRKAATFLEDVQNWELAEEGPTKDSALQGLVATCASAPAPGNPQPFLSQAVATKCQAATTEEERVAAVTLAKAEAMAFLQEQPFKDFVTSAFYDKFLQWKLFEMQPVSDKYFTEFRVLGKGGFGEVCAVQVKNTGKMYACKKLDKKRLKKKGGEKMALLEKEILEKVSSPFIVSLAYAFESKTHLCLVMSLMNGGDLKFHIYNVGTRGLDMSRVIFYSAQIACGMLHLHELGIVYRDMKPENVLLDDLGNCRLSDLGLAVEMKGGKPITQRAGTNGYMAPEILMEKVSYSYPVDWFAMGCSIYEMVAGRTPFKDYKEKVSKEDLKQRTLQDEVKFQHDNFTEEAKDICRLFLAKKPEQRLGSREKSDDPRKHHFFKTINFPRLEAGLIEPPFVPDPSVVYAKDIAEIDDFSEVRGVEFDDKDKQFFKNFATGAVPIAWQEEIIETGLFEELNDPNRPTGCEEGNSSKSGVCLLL
Method: as §1

[1] = read-out: % Enzyme Activity (relative to DMSO controls) AVG
[2] = read-out: % Enzyme Activity (relative to DMSO controls) Data 1
[3] = read-out: % Enzyme Activity (relative to DMSO controls) Data 2

T1 sequence (Q9UIK4 whole entry): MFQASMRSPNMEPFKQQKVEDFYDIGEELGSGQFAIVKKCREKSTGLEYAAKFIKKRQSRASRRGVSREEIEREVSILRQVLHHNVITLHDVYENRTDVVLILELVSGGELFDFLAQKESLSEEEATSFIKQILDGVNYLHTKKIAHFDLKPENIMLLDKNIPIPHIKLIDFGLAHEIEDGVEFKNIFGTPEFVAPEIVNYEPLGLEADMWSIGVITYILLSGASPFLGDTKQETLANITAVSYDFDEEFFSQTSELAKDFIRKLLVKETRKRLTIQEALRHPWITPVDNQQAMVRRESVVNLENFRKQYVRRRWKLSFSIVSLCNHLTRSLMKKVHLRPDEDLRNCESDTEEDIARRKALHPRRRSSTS
T9 sequence (O96017 whole entry): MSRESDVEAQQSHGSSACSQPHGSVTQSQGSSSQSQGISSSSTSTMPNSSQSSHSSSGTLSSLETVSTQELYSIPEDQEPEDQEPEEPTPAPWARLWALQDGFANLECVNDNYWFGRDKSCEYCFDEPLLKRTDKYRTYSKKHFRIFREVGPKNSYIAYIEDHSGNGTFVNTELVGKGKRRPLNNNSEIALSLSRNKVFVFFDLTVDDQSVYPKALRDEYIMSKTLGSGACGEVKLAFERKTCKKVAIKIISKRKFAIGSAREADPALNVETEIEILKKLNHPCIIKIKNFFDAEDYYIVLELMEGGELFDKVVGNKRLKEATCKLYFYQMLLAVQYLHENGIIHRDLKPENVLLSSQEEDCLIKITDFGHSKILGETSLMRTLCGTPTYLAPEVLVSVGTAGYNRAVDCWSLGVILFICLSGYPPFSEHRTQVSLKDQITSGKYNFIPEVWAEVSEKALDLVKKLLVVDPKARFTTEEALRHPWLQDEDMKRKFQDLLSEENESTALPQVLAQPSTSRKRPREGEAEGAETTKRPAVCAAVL
T4 sequence (P04626 23-1255): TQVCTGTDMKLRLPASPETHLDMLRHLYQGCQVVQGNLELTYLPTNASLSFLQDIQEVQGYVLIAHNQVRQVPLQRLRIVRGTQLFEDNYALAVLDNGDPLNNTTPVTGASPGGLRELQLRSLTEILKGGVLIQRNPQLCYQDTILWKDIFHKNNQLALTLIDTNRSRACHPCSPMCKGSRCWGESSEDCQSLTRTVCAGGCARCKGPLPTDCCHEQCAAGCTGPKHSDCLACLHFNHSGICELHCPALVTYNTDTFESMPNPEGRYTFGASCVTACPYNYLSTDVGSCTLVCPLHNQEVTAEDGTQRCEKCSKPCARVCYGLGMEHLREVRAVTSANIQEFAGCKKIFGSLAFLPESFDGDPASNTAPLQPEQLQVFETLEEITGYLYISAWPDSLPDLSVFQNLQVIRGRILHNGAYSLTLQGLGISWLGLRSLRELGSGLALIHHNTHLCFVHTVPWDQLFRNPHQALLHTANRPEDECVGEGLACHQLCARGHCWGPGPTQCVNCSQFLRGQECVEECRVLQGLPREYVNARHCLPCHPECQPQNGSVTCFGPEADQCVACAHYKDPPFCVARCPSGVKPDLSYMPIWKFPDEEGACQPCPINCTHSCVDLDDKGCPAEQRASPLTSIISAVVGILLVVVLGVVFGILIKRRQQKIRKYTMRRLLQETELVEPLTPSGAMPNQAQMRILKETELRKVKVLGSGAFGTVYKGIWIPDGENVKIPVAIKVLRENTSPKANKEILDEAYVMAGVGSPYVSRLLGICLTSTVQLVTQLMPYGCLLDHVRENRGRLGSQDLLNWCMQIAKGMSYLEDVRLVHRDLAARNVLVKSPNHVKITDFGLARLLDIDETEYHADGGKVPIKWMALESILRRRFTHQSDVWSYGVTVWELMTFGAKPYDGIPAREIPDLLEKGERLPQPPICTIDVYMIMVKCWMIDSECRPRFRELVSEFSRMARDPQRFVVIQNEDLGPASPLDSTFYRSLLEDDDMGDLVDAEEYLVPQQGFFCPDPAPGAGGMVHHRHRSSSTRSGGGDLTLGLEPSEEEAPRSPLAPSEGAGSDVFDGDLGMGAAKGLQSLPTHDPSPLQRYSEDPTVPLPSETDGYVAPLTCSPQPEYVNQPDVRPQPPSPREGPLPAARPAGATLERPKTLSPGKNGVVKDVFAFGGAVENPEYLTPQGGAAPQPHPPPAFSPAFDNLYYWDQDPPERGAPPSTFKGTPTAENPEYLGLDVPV
T8 sequence (Q9P0L2 whole entry): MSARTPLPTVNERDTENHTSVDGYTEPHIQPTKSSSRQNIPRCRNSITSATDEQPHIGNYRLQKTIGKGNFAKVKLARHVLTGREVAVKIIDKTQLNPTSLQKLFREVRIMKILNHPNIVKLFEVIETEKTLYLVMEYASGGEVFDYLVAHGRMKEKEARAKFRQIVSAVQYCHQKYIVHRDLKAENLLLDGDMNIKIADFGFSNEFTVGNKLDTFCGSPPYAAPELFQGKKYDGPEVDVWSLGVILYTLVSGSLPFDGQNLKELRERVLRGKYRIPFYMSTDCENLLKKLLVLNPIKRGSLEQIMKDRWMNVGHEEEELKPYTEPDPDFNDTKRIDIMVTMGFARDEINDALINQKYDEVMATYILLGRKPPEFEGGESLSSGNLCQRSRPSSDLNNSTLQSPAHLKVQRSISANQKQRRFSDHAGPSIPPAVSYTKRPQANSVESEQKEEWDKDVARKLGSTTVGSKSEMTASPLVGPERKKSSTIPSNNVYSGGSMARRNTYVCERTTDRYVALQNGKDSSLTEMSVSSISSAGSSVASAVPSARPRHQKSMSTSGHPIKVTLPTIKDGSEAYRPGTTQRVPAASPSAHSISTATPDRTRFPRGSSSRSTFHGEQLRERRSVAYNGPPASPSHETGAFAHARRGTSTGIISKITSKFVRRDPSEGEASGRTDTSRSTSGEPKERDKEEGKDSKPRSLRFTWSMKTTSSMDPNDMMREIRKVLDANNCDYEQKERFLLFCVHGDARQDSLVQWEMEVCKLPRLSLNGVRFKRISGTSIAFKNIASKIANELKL
T2 sequence (Q15349 whole entry): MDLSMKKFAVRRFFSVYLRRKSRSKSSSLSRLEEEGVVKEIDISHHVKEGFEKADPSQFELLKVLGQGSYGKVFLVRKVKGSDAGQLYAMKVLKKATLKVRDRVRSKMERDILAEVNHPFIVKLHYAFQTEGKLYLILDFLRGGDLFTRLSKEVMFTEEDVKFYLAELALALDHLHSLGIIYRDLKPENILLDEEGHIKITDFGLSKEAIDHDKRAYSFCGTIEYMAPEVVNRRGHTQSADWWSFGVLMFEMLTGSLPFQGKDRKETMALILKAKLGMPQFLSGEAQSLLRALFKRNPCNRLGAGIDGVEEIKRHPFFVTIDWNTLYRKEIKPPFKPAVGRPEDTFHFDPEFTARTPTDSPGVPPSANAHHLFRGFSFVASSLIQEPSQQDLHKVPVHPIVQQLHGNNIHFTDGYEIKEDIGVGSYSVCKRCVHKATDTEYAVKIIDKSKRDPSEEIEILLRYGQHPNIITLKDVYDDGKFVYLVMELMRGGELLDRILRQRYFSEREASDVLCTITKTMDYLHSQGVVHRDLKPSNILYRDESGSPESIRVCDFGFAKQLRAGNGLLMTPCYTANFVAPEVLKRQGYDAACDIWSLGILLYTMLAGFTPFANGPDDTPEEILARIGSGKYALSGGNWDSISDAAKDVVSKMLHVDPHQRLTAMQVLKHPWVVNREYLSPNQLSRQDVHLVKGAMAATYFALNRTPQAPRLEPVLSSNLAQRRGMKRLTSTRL
T6 sequence (Q9H2X6 whole entry): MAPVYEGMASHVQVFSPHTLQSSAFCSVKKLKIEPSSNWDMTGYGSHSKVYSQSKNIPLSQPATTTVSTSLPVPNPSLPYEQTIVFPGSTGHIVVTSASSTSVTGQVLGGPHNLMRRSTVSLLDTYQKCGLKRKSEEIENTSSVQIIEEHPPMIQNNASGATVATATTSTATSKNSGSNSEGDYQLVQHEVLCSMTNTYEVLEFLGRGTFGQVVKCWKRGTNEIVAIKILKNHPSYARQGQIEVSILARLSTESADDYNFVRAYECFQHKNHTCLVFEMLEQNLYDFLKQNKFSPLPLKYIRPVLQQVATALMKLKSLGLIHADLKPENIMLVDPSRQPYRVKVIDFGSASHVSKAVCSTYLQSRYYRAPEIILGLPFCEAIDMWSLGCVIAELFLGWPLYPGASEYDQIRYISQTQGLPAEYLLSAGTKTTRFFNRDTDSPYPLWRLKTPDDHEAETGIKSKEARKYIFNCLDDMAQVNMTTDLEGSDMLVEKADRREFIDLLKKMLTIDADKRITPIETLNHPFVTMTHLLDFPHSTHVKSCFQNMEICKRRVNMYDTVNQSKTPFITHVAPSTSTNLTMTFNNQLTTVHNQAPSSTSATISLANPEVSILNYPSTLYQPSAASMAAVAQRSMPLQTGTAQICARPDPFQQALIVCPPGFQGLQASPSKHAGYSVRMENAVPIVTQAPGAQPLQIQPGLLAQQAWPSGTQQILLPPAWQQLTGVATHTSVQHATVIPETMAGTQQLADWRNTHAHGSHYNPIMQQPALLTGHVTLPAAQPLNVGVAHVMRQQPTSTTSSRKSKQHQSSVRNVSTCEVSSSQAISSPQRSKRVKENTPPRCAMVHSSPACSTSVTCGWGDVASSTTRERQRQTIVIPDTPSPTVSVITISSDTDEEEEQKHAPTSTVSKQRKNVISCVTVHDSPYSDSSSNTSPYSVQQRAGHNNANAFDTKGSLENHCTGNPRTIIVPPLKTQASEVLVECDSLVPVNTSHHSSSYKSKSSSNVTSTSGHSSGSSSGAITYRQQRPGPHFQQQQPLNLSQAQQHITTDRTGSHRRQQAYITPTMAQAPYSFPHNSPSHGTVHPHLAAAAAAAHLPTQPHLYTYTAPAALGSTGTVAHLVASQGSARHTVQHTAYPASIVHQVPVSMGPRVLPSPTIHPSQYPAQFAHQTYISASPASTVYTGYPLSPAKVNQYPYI

CC(C)(C)C(=O)N1N=CC[C@H]1c1ccccc1 [GSK′963]
remaining activity at 10 µM (DAPK2; [1]): 105%
remaining activity at 10 µM (DAPK2; [2]): 104%
remaining activity at 10 µM (DAPK2; [3]): 105%
remaining activity at 10 µM (RSK3; [1]): 101%
remaining activity at 10 µM (RSK3; [2]): 102%
remaining activity at 10 µM (RSK3; [3]): 99.6%
remaining activity at 10 µM (JAK3; [1]): 106%
remaining activity at 10 µM (JAK3; [2]): 105%
remaining activity at 10 µM (JAK3; [3]): 106%
remaining activity at 10 µM (ERBB2/HER2; [1]): 105%
remaining activity at 10 µM (ERBB2/HER2; [2]): 102%
remaining activity at 10 µM (ERBB2/HER2; [3]): 107%
remaining activity at 10 µM (STK22D/TSSK1; [1]): 110%
remaining activity at 10 µM (STK22D/TSSK1; [2]): 108%
remaining activity at 10 µM (STK22D/TSSK1; [3]): 112%
remaining activity at 10 µM (HIPK2; [1]): 103%
remaining activity at 10 µM (HIPK2; [2]): 101%
remaining activity at 10 µM (HIPK2; [3]): 104%
remaining activity at 10 µM (BLK; [1]): 113%
remaining activity at 10 µM (BLK; [2]): 112%
remaining activity at 10 µM (BLK; [3]): 113%
remaining activity at 10 µM (MARK1; [1]): 105%
remaining activity at 10 µM (MARK1; [2]): 105%
remaining activity at 10 µM (MARK1; [3]): 105%
remaining activity at 10 µM (CHK2; [1]): 105%
remaining activity at 10 µM (CHK2; [2]): 106%
remaining activity at 10 µM (CHK2; [3]): 104%
remaining activity at 10 µM (GRK7; [1]): 90.3%
remaining activity at 10 µM (GRK7; [2]): 88.3%
remaining activity at 10 µM (GRK7; [3]): 92.4%
